Where a name gives a salt, the structure may show the parent alone. Read-outs that look alike come from different tables or passages of the source.
Legend:
[1] = system: rat primary hepatocytes; assay: MMP assay in rat primary hepatocytes; conditions: for IC50: Rattus norvegicus, Hepatocyte, read-out: MMP assays IC50 (µM) Rat Hepatocytes
[2] = system: rat primary hepatocytes
[3] = system: HepG2 cells; assay: cells; conditions: Homo sapiens; for IC50: HepG2, read-out: MMP assays IC50 (µM) HepG2; for Emax: HepG2, read-out: MMP assays efficacy (%) HepG2
[4] = system: HepG2 cells; conditions: cited from earlier work
[5] = read-out: MMP assays IC50 (µM) qHTS-HepG2
[6] = read-out: MMP assays IC50 (µM), qHTS-HepG2

Row | Structure (SMILES) | IC50 [1] | MMP assays efficacy (%) Rat Hepatocytes [2] | IC50 [3] | Emax [3] | MMP assays efficacy (%) qHTS-HepG2 [4] | IC50 [4, 5] | IC50 [4, 6] | MMP assays IC50 (µM) Rat Hepatocytes [1] | MMP assays IC50 (µM) qHTS-HepG2 [4]
1 | CCC/C=C/C=C/C(=O)O[C@H]1/C(=C/C(=O)OC)C[C@H]2C[C@H]([C@@H](C)O)OC(=O)C[C@H](O)C[C@@H]3C[C@H](OC(C)=O)C(C)(C)[C@](O)(C[C@@H]4C/C(=C/C(=O)OC)C[C@H](/C=C/C(C)(C)[C@]1(O)O2)O4)O3 [Bryostatin 1] | 0.79 ± 1.07 µM | -46±21% | 0.001 µM | 92% | -105±21% | 0.01 ± 0.01 µM | – | – | –
2 | Cc1ccccc1C(=O)Nc1ccc(C(=O)N2CCCC(O)c3cc(Cl)ccc32)c(C)c1 (centres unmarked) [Tolvaptan] | 17.4 ± 2 µM | -67±60% | 19.4 µM | 50% | -65±11% | – | 17.4 ± 8.01 µM | – | –
3 | OC(c1ccc(Cl)cc1)(c1ccc(Cl)cc1)C(Cl)(Cl)Cl [Dicofol] | 24.6 ± 9.27 µM | -122±51% | 8.91 µM | 101% | -98±4% | 9.69 ± 3.51 µM | – | – | –
4 | CC(=O)Nc1ccc2c(c1)Cc1ccccc1-2 [Compound 2-Acetylaminofluorene] | – | inactive | 31.6 µM | 46% | -63±5% | 36.3 ± 10.5 µM | – | inactive | –
5 | Cc1ccc2c(c1N)C(=O)c1ccccc1C2=O [Compound 1-Amino-2-methylanthraquinone] | 5.28 ± 3.3 µM | -85±28% | 2.51 µM | 92% | -82±1% | 0.64 ± 0.08 µM | – | – | –
6 | Oc1cccc2ccccc12 [Compound 1-Naphthol] | – | inactive | 31.6 µM | 107% | -104±5% | 31 ± 5.96 µM | – | inactive | –
7 | CC(=O)CC(c1ccccc1)c1c(O)c2ccccc2oc1=O (centres unmarked) [Sodium warfarin] | 35.5 µM | -77±32% | 35.5 µM | 65% | -95±22% | – | 38.6 ± 12.8 µM | – | –
8 | CC(=O)O[C@H]1C[C@H](O[C@H]2[C@@H](O)C[C@H](O[C@H]3[C@@H](O)C[C@H](O[C@H]4CC[C@@]5(C)[C@H](CC[C@@H]6[C@@H]5C[C@@H](O)[C@]5(C)[C@@H](C7=CC(=O)OC7)CC[C@]65O)C4)O[C@@H]3C)O[C@@H]2C)O[C@H](C)[C@H]1O[C@@H]1O[C@H](CO)[C@@H](O)[C@H](O)[C@H]1O [Lanatoside C] | – | inactive | 0.31 µM | 92% | -51±10% | – | 0.78 ± 0.14 µM | inactive | –
9 | Cc1cc(C(C)(C)c2ccc(O)c(C)c2)ccc1O [3,3'-Dimethylbisphenol A] | 34.4 ± 4.73 µM | -56±26% | 11.2 µM | 110% | -118±22% | 8.88 ± 3.37 µM | – | – | –
10 | CCc1ccccc1O [Compound 2-Ethylphenol] | – | inactive | 15.8 µM | 72% | inactive | – | – | inactive | inactive
11 | CCC(C)c1cccc(C(C)CC)c1O (centres unmarked) [2,6-Di(butan-2-yl)phenol] | – | inactive | 15.8 µM | 110% | -85±30% | 13.7 ± 3.19 µM | – | inactive | –
12 | Cl[Si](Cl)(c1ccccc1)c1ccccc1 [Dichlorodiphenylsilane] | – | inactive | 22.4 µM | 109% | -106±4% | 13 ± 9.66 µM | – | inactive | –
13 | O=C(NC(=O)c1c(F)cccc1F)Nc1cc(Cl)c(OC(F)(F)C(F)C(F)(F)F)cc1Cl (centres unmarked) [Lufenuron] | 45 ± 7.29 µM | -103±8% | 14.1 µM | 100% | -119±18% | – | 7.65 ± 0.7 µM | – | –
14 | CC(COc1ccccc1)N(CCCl)Cc1ccccc1 (centres unmarked) [Phenoxybenzamine hydrochloride] | – | inactive | 35.5 µM | 63% | -99±7% | – | 48.8 ± 9.17 µM | inactive | –
15 | Oc1cc(Cl)c(Cl)c(Cl)c1 [3,4,5-Trichlorophenol] | 33.8 ± 17.2 µM | -100±4% | 5.01 µM | 96% | – | 3.8 ± 1.74 µM | – | – | –
16 | COP(=S)(OC)Oc1c(Cl)cc(C)cc1Cl [Tolclofos-methyl] | 31.2 ± 19 µM | -74±66% | 39.8 µM | 105% | -72±22% | – | 30.6 ± 5.8 µM | – | –
